The values that follow come from US10040788B2, “1,3,4-thiadiazole compounds and their use in treating cancer” (AstraZeneca AB, priority 2014, dated 2018).

For assay [1], the system named is NCI-H1703 cells. The experiment in a line: GLS Cell Proliferation Assay (NCI-H1703). Type of assay: cell-based, human. Particulars: Homo sapiens, 120 h; NCI-H1703 cells, 5 days incubation; geometric mean where repeated; read-out: Assay c) GLS Cell Proliferation Assay. The text has this: (§1) The following assays were used to measure the effects of the compounds of the present invention: a) GLS Enzyme Potency Assay; b) GLS Cell Potency Assay; c) GLS Cell Proliferation Assay; and d) Mouse Xenograft Model. During the description of the assays, generally: • i. The following abbreviations have been used: CO2=Carbon dioxide; DMEM=Dulbecco's Modified Eagle Medium; DMSO=Dimethyl sulphoxide; EDTA=Ethylenediaminetetraacetic acid; EGTA=Ethylene glycol tetraacetic acid; FCS=Foetal calf serum; h=Hour(s); NBS=Non-binding surface; SDS=Sodium dodecyl sulphate; r.t.=room temperature; TRIS=Tris(Hydroxymethyl)aminomethane. • ii. […]
The ability of compounds to inhibit cell growth was measured using a 384 well plate NCI-H1703 cell proliferation assay. NCI-H1703 cells were grown in phenol red free RPMI1640, 10% FCS and 2 mM glutamine and seeded at a density of 750 cells per well in 40 μl of growth medium into clear-bottom 384 well assay plates (Corning product code 3712) and incubated for 24 h at 37° C., 5% CO2. […] DMSO concentration was maintained at 0.3% by back filling with DMSO solution. Plates were incubated for 5 days at 37° C., 5% CO2, Sytox Green and Saponin added to final concentration of 2 μM and 0.25% respectively and incubated for 6 h prior to analysis. Plates were read on an Acumen eX3 (TTP Labtech) using 488 nm excitation and FITC filter set (500-530 nm) for emission. IC50 values were calculated by curve fitting to max inhibition of day zero growth using GeneData software analysis.

Assay [2] deals with cellular GLS activity (Homo sapiens (Human), UniProt O94925). The experiment in a line: GLS Cell Potency Assay (PC3 coupled assay measuring cellular glutamate depletion). The conditions noted are these: PC3 cells, 6 h incubation, cellular glutamate depletion; geometric mean where repeated; read-out: Assay b) GLS Cell Potency Assay IC50. The format is cell-based.
Chain of cellular GLS activity (O94925 55-669): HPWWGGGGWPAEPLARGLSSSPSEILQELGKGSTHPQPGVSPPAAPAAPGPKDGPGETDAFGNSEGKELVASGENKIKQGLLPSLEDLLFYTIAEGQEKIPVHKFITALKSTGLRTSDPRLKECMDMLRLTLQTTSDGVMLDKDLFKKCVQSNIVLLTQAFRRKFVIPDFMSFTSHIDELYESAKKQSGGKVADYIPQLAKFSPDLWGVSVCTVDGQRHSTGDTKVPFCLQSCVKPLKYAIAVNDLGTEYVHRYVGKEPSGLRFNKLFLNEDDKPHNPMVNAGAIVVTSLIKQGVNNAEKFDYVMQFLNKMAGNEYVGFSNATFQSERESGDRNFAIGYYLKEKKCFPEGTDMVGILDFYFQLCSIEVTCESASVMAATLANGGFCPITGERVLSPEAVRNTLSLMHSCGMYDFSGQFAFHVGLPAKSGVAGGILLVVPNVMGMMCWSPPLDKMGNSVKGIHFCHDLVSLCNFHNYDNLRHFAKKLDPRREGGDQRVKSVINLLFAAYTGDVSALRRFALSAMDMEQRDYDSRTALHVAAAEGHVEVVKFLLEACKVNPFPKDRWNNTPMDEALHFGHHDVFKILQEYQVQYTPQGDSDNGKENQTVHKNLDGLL
From the text: as §1
Compounds were assessed for their potential to inhibit cellular GLS activity by use of a PC3 coupled assay measuring cellular glutamate depletion. […] DMSO concentration was maintained at 0.3% by back filling with DMSO solution. PC3 cells were grown in phenol free DMEM, 10% dialyzed FCS, 2 mM glutamine and following dispersal by trypsinisation were plated at 5.6×10^3 cells per well in 40 μl of growth medium directly into the 384 well assay plates containing dispensed compound. After incubation for 6 h at 37° C., 5% CO2 growth media was aspirated and cells lysed in 15 μl of buffer containing 10 mM TRIS pH7.4, 100 mM NaCl, 1 mM EDTA, 1 mM EGTA, 1 mM NaF, 20 mM Na4P2O7, 2 mM Na3VO4, 1% Triton X-100, 10% glycerol, 0.1% SDS and 0.5% deoxycholate.

Assay [3] has as its target GLS1 (Homo sapiens (Human), UniProt O94925). The experiment in a line: GLS Enzyme Potency Assay (Glutamate Oxidase/AmplexRed coupled assay). Type of assay: biochemical. The conditions noted are these: 6His tagged GLS protein (amino acids 63-669); geometric mean where repeated. The text has this: The following assays were used to measure the effects of the compounds of the present invention: a) GLS Enzyme Potency Assay; b) GLS Cell Potency Assay; c) GLS Cell Proliferation Assay; and d) Mouse Xenograft Model. During the description of the assays, generally: • i. The following abbreviations have been used: CO2=Carbon dioxide; DMEM=Dulbecco's Modified Eagle Medium; DMSO=Dimethyl sulphoxide; EDTA=Ethylenediaminetetraacetic acid; EGTA=Ethylene glycol tetraacetic acid; FCS=Foetal calf serum; h=Hour(s); NBS=Non-binding surface; SDS=Sodium dodecyl sulphate; r.t.=room temperature; TRIS=Tris(Hydroxymethyl)aminomethane. • ii. IC50 values were calculated using a smart fitting model in Genedata. […] Assay a): GLS Enzyme Potency Assay
A Glutamate Oxidase/AmplexRed coupled assay was used to measure the ability of compounds to bind to and inhibit the activity of GLS1 in vitro. […] GLS1 was diluted to 2× working concentration and incubated at r.t. to allow the tetrameric/dimeric forms to reach steady state. Assay measurements were performed in buffer comprising 50 mM TRIS pH 7.8, 100 mM NaPO4, pH 7.8, 0.001% v/v Tween20. […] DMSO concentration was maintained at 2% by back filling with DMSO solution. […] 3 μL of 100 mM glutamine diluted in assay buffer was then added and the reaction incubated at r.t. for 60 minutes. […] An artefact version of the assay where the 6His tagged GLS protein and glutamine were replaced with assay buffer was also used to rule out non specific effects on the assay components.

Chain of GLS1 (O94925 63-669): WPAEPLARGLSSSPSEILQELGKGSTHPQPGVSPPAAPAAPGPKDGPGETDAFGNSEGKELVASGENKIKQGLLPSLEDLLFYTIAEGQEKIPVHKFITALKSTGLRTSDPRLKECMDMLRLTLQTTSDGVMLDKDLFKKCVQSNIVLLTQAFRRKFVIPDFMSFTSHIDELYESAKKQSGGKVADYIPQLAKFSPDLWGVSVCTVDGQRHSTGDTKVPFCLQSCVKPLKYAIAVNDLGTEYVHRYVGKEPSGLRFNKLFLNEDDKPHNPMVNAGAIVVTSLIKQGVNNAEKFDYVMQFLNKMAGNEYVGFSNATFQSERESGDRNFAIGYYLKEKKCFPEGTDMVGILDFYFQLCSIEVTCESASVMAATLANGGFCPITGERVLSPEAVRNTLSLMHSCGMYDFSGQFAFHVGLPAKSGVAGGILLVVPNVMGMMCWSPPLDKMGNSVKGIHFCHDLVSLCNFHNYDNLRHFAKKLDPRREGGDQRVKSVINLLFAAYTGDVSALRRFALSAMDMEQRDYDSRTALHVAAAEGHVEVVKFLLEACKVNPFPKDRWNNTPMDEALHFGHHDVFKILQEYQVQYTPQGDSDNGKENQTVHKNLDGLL

As for `COc1cccc([C@@H](OC)C(=O)Nc2nnc(N[C@@H]3CCN(c4cncnn4)C3)s2)c1` [21(b), (2R)-2-methoxy-2-(3-methoxyphenyl)-N-[5-[[(3R)-1-(1,2,4-triazin-6-yl)pyrrolidin-3-yl]amino]-1,3,4-thiadiazol-2-yl]acetamide], the results for the IC50 in assay [1], in assay [2] and in assay [3] were 1.78 nM, 0.35 nM and 46.9 nM, respectively.

For `COc1ccc([C@H](OC)C(=O)Nc2nnc(N[C@@H]3CCN(c4cccnn4)C3)s2)cc1OC` [25(a), (2S)-2-(3,4-dimethoxyphenyl)-2-methoxy-N-[5-[[(3R)-1-pyridazin-3-ylpyrrolidin-3-yl]amino]-1,3,4-thiadiazol-2-yl]acetamide], the IC50 turned out to be 68.5 nM in assay [1], 1.81 nM in assay [2] and 35.4 nM in assay [3].

On to `COc1ccc([C@@H](OC)C(=O)Nc2nnc(N[C@@H]3CCN(c4cccnn4)C3)s2)cc1OC` [25(b), (2R)-2-(3,4-dimethoxyphenyl)-2-methoxy-N-[5-[[(3R)-1-pyridazin-3-ylpyrrolidin-3-yl]amino]-1,3,4-thiadiazol-2-yl]acetamide], for which the IC50 came out at 630 nM in assay [1], 56.1 nM in assay [2] and 135 nM in assay [3].

Consider `CCO[C@H](C(=O)Nc1nnc(N[C@@H]2CCN(c3nccnn3)C2)s1)c1cccc(OC)c1` [27(a), (2S)-2-ethoxy-2-(3-methoxyphenyl)-N-[5-[[(3R)-1-(1,2,4-triazin-3-yl)pyrrolidin-3-yl]amino]-1,3,4-thiadiazol-2-yl]acetamide], for which the IC50 in assay [1] was found to be 11.7 nM; in assay [2] it was 2.23 nM; in assay [3], 50.8 nM.

Regarding `CCO[C@@H](C(=O)Nc1nnc(N[C@@H]2CCN(c3nccnn3)C2)s1)c1cccc(OC)c1` [27(b), (2R)-2-ethoxy-2-(3-methoxyphenyl)-N-[5-[[(3R)-1-(1,2,4-triazin-3-yl)pyrrolidin-3-yl]amino]-1,3,4-thiadiazol-2-yl]acetamide], the IC50 in assay [1] was 337 nM; in assay [2] it was 19.5 nM; in assay [3], 844 nM.

For `CCO[C@H](C(=O)Nc1nnc(N[C@@H]2CCN(c3nccnn3)C2)s1)c1ccc(OC)cc1` [29(a), (2S)-2-ethoxy-2-(4-methoxyphenyl)-N-[5-[[(3R)-1-(1,2,4-triazin-3-yl)pyrrolidin-3-yl]amino]-1,3,4-thiadiazol-2-yl]acetamide], the values for the IC50 in assay [1], in assay [2] and in assay [3] were 125 nM, 5.42 nM and 108 nM, respectively.

On to `CCO[C@@H](C(=O)Nc1nnc(N[C@@H]2CCN(c3nccnn3)C2)s1)c1ccc(OC)cc1` [29(b), (2R)-2-ethoxy-2-(4-methoxyphenyl)-N-[5-[[(3R)-1-(1,2,4-triazin-3-yl)pyrrolidin-3-yl]amino]-1,3,4-thiadiazol-2-yl]acetamide], for which the IC50 in assay [1] came out at 1960 nM; in assay [2] it was 134 nM; in assay [3], 1370 nM.

In the case of `CCO[C@H](C(=O)Nc1nnc(N[C@@H]2CCN(c3cccnn3)C2)s1)c1ccc(F)c(OC)c1` [31(a), (2S)-2-ethoxy-2-(4-fluoro-3-methoxy-phenyl)-N-[5-[[(3R)-1-pyridazin-3-ylpyrrolidin-3-yl]amino]-1,3,4-thiadiazol-2-yl]acetamide], the IC50 in assay [1] came to 16.5 nM; in assay [2], 0.559 nM; in assay [3] it was 50.2 nM.

Take `CCO[C@@H](C(=O)Nc1nnc(N[C@@H]2CCN(c3cccnn3)C2)s1)c1ccc(F)c(OC)c1` [31(b), (2R)-2-ethoxy-2-(4-fluoro-3-methoxy-phenyl)-N-[5-[[(3R)-1-pyridazin-3-ylpyrrolidin-3-yl]amino]-1,3,4-thiadiazol-2-yl]acetamide]: the IC50 stood at 624 nM in assay [1], 33.3 nM in assay [2] and 86.2 nM in assay [3].

As for `COc1cc([C@H](OC)C(=O)Nc2nnc(N[C@@H]3CCN(c4nccnn4)C3)s2)ccc1F` [32(a), (2S)-2-(4-fluoro-3-methoxy-phenyl)-2-methoxy-N-[5-[[(3R)-1-(1,2,4-triazin-3-yl)pyrrolidin-3-yl]amino]-1,3,4-thiadiazol-2-yl]acetamide], the IC50 in assay [1] was 2960 nM; in assay [2], 300 nM; in assay [3], 2460 nM.

In the case of `COc1cc([C@@H](OC)C(=O)Nc2nnc(N[C@@H]3CCN(c4nccnn4)C3)s2)ccc1F` [32(b), (2R)-2-(4-fluoro-3-methoxy-phenyl)-2-methoxy-N-[5-[[(3R)-1-(1,2,4-triazin-3-yl)pyrrolidin-3-yl]amino]-1,3,4-thiadiazol-2-yl]acetamide], the IC50 in assay [1] is 107 nM; in assay [2] it was 4.99 nM; in assay [3] it was 70.7 nM.

As for `CCO[C@H](C(=O)Nc1nnc(N[C@@H]2CCN(c3nccnn3)C2)s1)c1ccc(F)c(OC)c1` [33(a), (2S)-2-ethoxy-2-(4-fluoro-3-methoxy-phenyl)-N-[5-[[(3R)-1-(1,2,4-triazin-3-yl)pyrrolidin-3-yl]amino]-1,3,4-thiadiazol-2-yl]acetamide], the IC50 in assay [1] is 168 nM; in assay [2] it was 7.13 nM; in assay [3], 50.2 nM.

With `CCO[C@@H](C(=O)Nc1nnc(N[C@@H]2CCN(c3nccnn3)C2)s1)c1ccc(F)c(OC)c1` [33(b), (2R)-2-ethoxy-2-(4-fluoro-3-methoxy-phenyl)-N-[5-[[(3R)-1-(1,2,4-triazin-3-yl)pyrrolidin-3-yl]amino]-1,3,4-thiadiazol-2-yl]acetamide], the IC50 in assay [1] was found to be 5540 nM; in assay [2], 690 nM; in assay [3], 1970 nM.

As for `CCO[C@H](C(=O)Nc1nnc(N[C@@H]2CCN(c3nccnn3)C2)s1)c1ccccc1` [34(a), (2S)-2-ethoxy-2-phenyl-N-[5-[[(3R)-1-(1,2,4-triazin-3-yl)pyrrolidin-3-yl]amino]-1,3,4-thiadiazol-2-yl]acetamide], the IC50 in assay [1] came to 93.1 nM; in assay [2] it was 12 nM; in assay [3] it was 88.1 nM.

Turning to `CCO[C@@H](C(=O)Nc1nnc(N[C@@H]2CCN(c3nccnn3)C2)s1)c1ccccc1` [34(b), (2R)-2-ethoxy-2-phenyl-N-[5-[[(3R)-1-(1,2,4-triazin-3-yl)pyrrolidin-3-yl]amino]-1,3,4-thiadiazol-2-yl]acetamide], the IC50 stood at 2900 nM in assay [1], 168 nM in assay [2] and 1480 nM in assay [3].

In the case of `CCO[C@H](C(=O)Nc1nnc(N[C@@H]2CCN(c3nccnn3)C2)s1)c1ccc(F)cc1` [35(a), (2S)-2-ethoxy-2-(4-fluorophenyl)-N-[5-[[(3R)-1-(1,2,4-triazin-3-yl)pyrrolidin-3-yl]amino]-1,3,4-thiadiazol-2-yl]acetamide], the IC50 worked out at 7130 nM in assay [1], 337 nM in assay [2] and 1950 nM in assay [3].

For the compound `CCO[C@@H](C(=O)Nc1nnc(N[C@@H]2CCN(c3nccnn3)C2)s1)c1ccc(F)cc1` [35(b), (2R)-2-ethoxy-2-(4-fluorophenyl)-N-[5-[[(3R)-1-(1,2,4-triazin-3-yl)pyrrolidin-3-yl]amino]-1,3,4-thiadiazol-2-yl]acetamide], the IC50 in assay [1] was 404 nM; in assay [2], 18.7 nM; in assay [3], 155 nM.
